Laboratory results reported in patent publication US10632101B2, “Methods and compositions for supporting endogenous systems related to life span” (USANA Health Sciences, Inc., priority 2016, dated 2020).

Tests used:
mTOR = target: T1, mTOR (Homo sapiens, UniProt P42345); details: cited from earlier work
T1 construct: host or cells: isolated cells in culture (not specified)

human NF-κB = assay: NF-κB reporter cell assay, antagonist mode; format: cell-based; details: 2.54 μg/ml
C. elegans strain CB5586 = assay: Phenotypic lifespan screening in C. elegans; format: in vivo
Experimental: Dilutions of the test formulations were applied to individual populations of C. elegans and the lifespan of each population was monitored. Any changes in the lifespan of an individual population compared to a control population were recorded and correlated to the respective test formulation (N356 or N357) and the respective dilution (0.1 mg/ml, 1 mg/ml, and 10 mg/ml).
The N256 and N357 formulations were each prepared as individual 100 mg/ml stock solutions in dimethyl sulfoxide (DMSO). Serial dilutions of each stock solution were then prepared at 0.1 mg/ml, 1 mg/ml, and 10 mg/ml in DMSO. Control solutions of DMSO only were also prepared. Synchronous aged adult populations of C. elegans strain CB5586 worms were prepared. The CB5586 strain comprises a pharyngeal GFP (green fluorescent protein) tag and a mutation in the bus-5 gene. The pharyngeal GFP tag allows for fluorescent images of the worm populations to be taken. The mutation in the bus-5 gene causes the loss of normal cuticle antigens that permits the cuticle of the worms to become permeable to the test formulations and allow direct uptake of the test formulations to avoid interaction of the test formulations with protective mechanisms of the gut channel. Each serial dilution of each test formulation was added to a separate population of the prepared worms. The control solutions were also added to separate populations of the prepared worms. The populations of the prepared worms were then maintained on standard nematode growth media (NGM) agar plates at 20° C. with sufficient food (Escherichia coli strain OP-50).
Each worm population was then monitored by fluorescent imaging to determine the number of living and dead worms as a function of time. The fluorescent imaging was analyzed by software that recognized and counted worms based on their fluorescent intensity compared to background fluorescence. […] The ability to distinguish between living and dead worms allowed the number of living worms and a cumulative number of dead worms to be monitored against time. Worm populations from a selection of fluorescent images were manually checked to verify that the software had accurately counted the number of living and dead worms.
The counts of the living and dead worms as a function of time were then analyzed for each of the worm populations and used to prepare Kaplan-Meier survival curves and associated statistics for each of the worm populations. […] The median lifespan is shown as the length of time after the last mitotic division that 50% of the test population remains viable when compared to the control population. The maximum lifespan extension is shown as the length of time after the last mitotic division that 5% of the test population remains viable when compared to the control population.
The counts of the living and dead worms as a function of time and the Kaplan-Meier survival curves and the associated statistics were then analyzed for each of the worm populations. The analysis included determining mean and median lifespan. The analysis included a non-parametric test, the Log-Rank test, which compares two survival functions for the overall lifespan assay and provides a reliable p-value summarizing the whole experiment. The analysis also included Fisher's Exact Test that calculated the significance of survival function comparisons at multiple specific time points throughout the experiment, rather than for the overall lifespan. The results of the analysis are shown below in Tables 10-17.
Phenotypic screening was carried out as described in EXAMPLE 2 for various individual compounds of the N357 formulation. […] Alpha lipoic acid was sourced from PureBulk™ USA as a racemic mix of R and S stereoisomers and was assigned a sample number of N198. Hesperidin was sourced from Sigma Aldrich at ≥80% purity and was assigned a sample number of N347. […]

Nrf2 = Nrf2 signaling fluorescent reporter assay in human retinal epithelial cell line; format: cell-based
Experimental: The assays were carried out with a fluorescent reporter assay that utilized a human retinal epithelial cell line. The assays also included validation by RT-PCR (reverse transcription polymerase chain reaction) of Nrf2 target genes. The human retinal epithelial cell line was purchased from ATCC (American Type Cell Culture, Manassas, Va.) and was configured to function as a fluorescent reporter assay. Test solutions of each of the alpha lipoic acid, resveratrol, curcumin, EGCG, Olivol®, rutin, quercetin, and hesperetin were prepared by serial dilution. Control solutions were also prepared. Positive control solutions of a known Nrf2 agonist, L-sulphoraphane was also prepared. Each test solution was then assayed for Nrf2 signaling activity using the fluorescent reporter assay and compared to control assays. The positive control solutions were also tested.

[1] = system: NF-κB reporter cells (HEK293); assay: Live cell multiplex read-out in the NF-κB antagonist assay; format: cell-based, human
Experimental: Various receptor assays were carried out for test compounds corresponding to ingredients of the nutritional supplement composition. In general, the receptor assays utilized reporter cells that either expressed a native receptor or a receptor hybrid. The receptor hybrids were engineered so that the native N-terminal DNA binding domain (DBD) was replaced with a yeast Gal4 DBD. The reporter cells expressed a hybrid receptor comprising either the native receptor (Nrf2 and NF-κB) or the N-terminal Gal4 DNA binding domain fused to the ligand binding domain of the specific human nuclear receptor (PPARα, PPARδ, and PPARγ). The reporter gene (e.g., firefly luciferase) was functionally linked to either upstream receptor-specific response elements (GRE) or the Gal4 upstream activation sequence (UAS). A summary of the receptors, the reporter cells used for each particular receptor assay, and the reference compounds used to confirm performance of the receptor assays are indicated below in Table 4.
A vehicle control was prepared. […] After incubation, fluorescence was measured to determine a relative number of live cells per test well.

Question: With `Oc1ccc(/C=C/c2cc(O)cc(O)c2)cc1` [Resveratrol, 3,5,4′-trihydroxy-trans-stilbene] as the compound, how does the “mTOR inhibition” value (mTOR; applied to isolated cells in culture) read?
Answer: inhibit mTOR

Question: And the “mTOR inhibition, mitophagy and mitochondrial turnover” value (mTOR)?
Answer: inhibit mTOR, up-regulate mitophagy, and increase the rate of mitochondrial turnover

Question: And the “NF-κB % Inhibition” value (human NF-κB)?
Answer: −50%

Question: What about the “Statistically Significant Result” value (C. elegans strain CB5586; 0.1 mg/ml compared to DMSO control) of the same compound?
Answer: No statistical difference

Question: And the “effect on chronological lifespan” value (C. elegans strain CB5586; 0.1 and 10 mg/ml tested)?
Answer: significant positive and dose-dependent increase of chronological lifespan

Question: What about the “activation of Nrf2” value (Nrf2; 10 μM and 1) of the same compound?
Answer: demonstrated activation of Nrf2

Question: And the “concentration with more activation of Nrf2” value (Nrf2; of 10 μM and 1)?
Answer: 10 µM

Question: And the “NF-κB % Live Cell” value ([1]; 0.28 μg/ml (resveratrol series))?
Answer: 100%

Question: And the “NF-κB % Live Cell” value ([1]; 0.85 μg/ml)?
Answer: 100%
